This data set is described as follows: Bulk density determination of granules / drug substance. The data set is classed as physicochemical. The source says:
Generally, bulk density is the weight of a unit volume of material. Bulk density is also known as “apparent density.” Bulk density is typically expressed as a weight:volume ratio, for example, kilograms per liter (Kg/L) or grams per cubic centimeter (g/cm[…]). Bulk desntiy of a material can be measured by techniques that are well known in the art, by measuring the weight and volume of the material. See the Examples section of this application for exemplary techniques for measurement of bulk density.
The tap and bulk density determinations are performed as follows:
(a) A 250 mL glass cylinder is filled with formulation granules to the 100-200 mL volume mark.
(b) The mass of the cyclinder is recorded and the bulk density is determined by calculating the ratio of the mass of the formulation granules to the volume of the formulation granules.

Structures are written as SMILES.

Consider `CCN(CC)CCNC(=O)c1c(C)[nH]c(/C=C2\C(=O)Nc3ccc(F)cc32)c1C` [5-(5-fluoro-2-oxo-1,2-dihydro-indol-3-ylidenemethyl)-2,4-dimethyl-1H-pyrrole-3-carboxylic acid (2-diethylamino-ethyl)-amide], for which, for the setting “salt by itself”, the bulk density result is “about 0.11±0.1”.

Turning to `Cc1[nH]c(/C=C2\C(=O)Nc3ccc(F)cc32)c(C)c1C(=O)NCC(O)CN1CCOCC1` (centres unmarked) [5-[(Z)-(5-fluoro-2-oxo-1,2-dihydro-3H-indol-3-ylidene)methyl]-N-[2-hydroxy-3-morpholin-4-ylpropyl]-2,4-dimethyl-1H-pyrrole-3-carboxamide], the bulk density (maleate salt by itself) fell in the range of 0.05 to 0.07 kg/L.

Source of the values: patent US20040229930A1, “Formulations comprising a basic indolinone compound” (Pharmacia Italia S.p.A., priority 2002, published 2004).
